Measurements from patent publication US20050232860A1, “Use of edg-receptor agonists for the treatment of hypertension” (priority 2001, published 2005).

Test system: α2-adrenoceptors
Experiment: [^3H]rauwolscine radioligand binding to membranes from undifferentiated PC12 cells
Design: species or system rat
Details: 16.8 nM radioligand; for [^3H]Rauwolscine binding: n=4
Procedure: Results are expressed as mean values±SEM. All experiments were carried out in triplicate.

COC(=O)[C@H]1[C@H]2C[C@H]3c4[nH]c5ccccc5c4CCN3C[C@H]2CC[C@@H]1O [[^3H]Rauwolscine, [O-methyl-3H]rauwolscine]
[^3H]Rauwolscine binding as % of the radioactivity added to each assay (absence of 10 μM rauwolscine): 0.19±0.01% | [^3H]Rauwolscine binding (absence of 10 μM rauwolscine): 134.0±7.1 fmol/mg protein | [^3H]Rauwolscine binding as % of the radioactivity added to each assay (presence of 10 μM rauwolscine): 0.19±0.01% | [^3H]Rauwolscine binding (presence of 10 μM rauwolscine): 132.8±7.0 fmol/mg protein
